According to PubChem BioAssay AID248 (DTP/NCI, 2004):
Several values for one entry are separate records, joined by “and”; a condition that tells them apart may be missing. Equal values may be shown once. Inconclusive results and toxic doses are left out. Cut-off read from the data, not from the text of the source: active = T/C of 150% or more; inactive = T/C below 125%.

System: L1210 leukemia ip in BDF1 mice, survival T/C
Assay: NCI In Vivo Anticancer Drug Screen. Data for tumor model L1210 Leukemia (intraperitoneal) in B6D2F1 (BDF1) mice
Details: endpoint: mean survival time, higher = longer survival
Method in brief: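 Tumor was transplanted into mice, which were then dosed with test compound or vehicle alone. Survival was recorded for each group, and the treated figure was expressed relative to the control figure.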

[1] = dose: 100.0 mg/kg/injection, schedule: Q01DX009 (ip), vehicle: Klucel (hydroxypropylcellulose) (HPC)
[2] = dose: 200.0 mg/kg/injection, schedule: Q01DX009 (ip), vehicle: Klucel (hydroxypropylcellulose) (HPC)
[3] = dose: 400.0 mg/kg/injection, schedule: Q01DX009 (ip), vehicle: Klucel (hydroxypropylcellulose) (HPC)
[4] = dose: 100.0 mg/kg/injection, schedule: Q01DX001 (ip), vehicle: carboxymethylcellulose (CMC)
[5] = dose: 50.0 mg/kg/injection, schedule: Q01DX001 (ip), vehicle: carboxymethylcellulose (CMC)
[6] = dose: 200.0 mg/kg/injection, schedule: Q01DX001 (ip), vehicle: carboxymethylcellulose (CMC)
[7] = dose: 400.0 mg/kg/injection, schedule: Q01DX001 (ip), vehicle: carboxymethylcellulose (CMC)
[8] = dose: 25.0 mg/kg/injection, schedule: Q04DX003 (ip), vehicle: Klucel (hydroxypropylcellulose) (HPC)
[9] = dose: 50.0 mg/kg/injection, schedule: Q04DX003 (ip), vehicle: Klucel (hydroxypropylcellulose) (HPC)
[10] = dose: 100.0 mg/kg/injection, schedule: Q01DX001 (ip), vehicle: Klucel (hydroxypropylcellulose) (HPC)
[11] = dose: 100.0 mg/kg/injection, schedule: Q04DX003 (ip), vehicle: Klucel (hydroxypropylcellulose) (HPC)
[12] = dose: 200.0 mg/kg/injection, schedule: Q01DX001 (ip), vehicle: Klucel (hydroxypropylcellulose) (HPC)
[13] = dose: 200.0 mg/kg/injection, schedule: Q04DX003 (ip), vehicle: Klucel (hydroxypropylcellulose) (HPC)
[14] = dose: 400.0 mg/kg/injection, schedule: Q01DX001 (ip), vehicle: Klucel (hydroxypropylcellulose) (HPC)
[15] = dose: 400.0 mg/kg/injection, schedule: Q04DX003 (ip), vehicle: Klucel (hydroxypropylcellulose) (HPC)
[16] = dose: 100.0 mg/kg/injection, schedule: Q01DX001 (ip), vehicle: saline
[17] = dose: 200.0 mg/kg/injection, schedule: Q01DX001 (ip), vehicle: saline
[18] = dose: 400.0 mg/kg/injection, schedule: Q01DX001 (ip), vehicle: saline
[19] = dose: 100.0 mg/kg/injection, schedule: Q01DX009 (ip), vehicle: saline

Measured: T/C

CN(C)c1ccc(C(=O)NO)cc1
inactive: [1] 97 % of control | [2] 105 % of control | [3] 100 % of control

CCOC(=O)C(Cc1csc2ccccc12)(NC(C)=O)C(=O)OCC
inactive: dose: 44.4 mg/kg/injection, schedule: Q01DX001 (ip), vehicle: carboxymethylcellulose (CMC) 93 % of control and 94 % of control | dose: 66.7 mg/kg/injection, schedule: Q01DX001 (ip), vehicle: carboxymethylcellulose (CMC) 93 % of control and 94 % of control | [4] 94 % of control and 98 % of control | dose: 150.0 mg/kg/injection, schedule: Q01DX001 (ip), vehicle: carboxymethylcellulose (CMC) 101 % of control and 91 % of control

O=c1c(Cl)c(-c2ccccc2)nc2ccccn12
inactive: dose: 12.5 mg/kg/injection, schedule: Q01DX001 (ip), vehicle: saline with Tween-80 100 % of control | dose: 25.0 mg/kg/injection, schedule: Q01DX001 (ip), vehicle: saline with Tween-80 110 % of control | dose: 50.0 mg/kg/injection, schedule: Q01DX001 (ip), vehicle: saline with Tween-80 93 % of control

O=C1CCc2cc(Cl)ccc2O1
inactive: [5] 103 % of control | [4] 100 % of control | [6] 103 % of control | [7] 94 % of control

O=C1CC(c2c[nH]c3nccnc23)NN1 (stereo not drawn)
inactive: dose: 6.25 mg/kg/injection, schedule: Q01DX009 (ip), vehicle: water 100 % of control | dose: 12.5 mg/kg/injection, schedule: Q01DX009 (ip), vehicle: water 100 % of control | dose: 25.0 mg/kg/injection, schedule: Q01DX009 (ip), vehicle: water 99 % of control | dose: 50.0 mg/kg/injection, schedule: Q01DX009 (ip), vehicle: water 105 % of control | dose: 100.0 mg/kg/injection, schedule: Q01DX009 (ip), vehicle: water 94 % of control | dose: 200.0 mg/kg/injection, schedule: Q01DX009 (ip), vehicle: water 89 % of control

Cc1cnc(Cl)nc1N1CC1
inactive: dose: 1.0 mg/kg/injection, schedule: Q01DX Z (ip), vehicle: methylcellulose (MC) 91 % of control

O=C1N(c2cccnc2)C(c2ccccc2)C1(c1ccccc1)c1ccccc1 (stereo not drawn)
inactive: dose: 100.0 mg/kg/injection, schedule: Q04DX003 (ip), vehicle: gum acacia 91 % of control | dose: 200.0 mg/kg/injection, schedule: Q04DX003 (ip), vehicle: gum acacia 87 % of control | dose: 400.0 mg/kg/injection, schedule: Q04DX003 (ip), vehicle: gum acacia 91 % of control

COC(=O)C1CC(=O)c2c(O)ccc(O)c2C1 (stereo not drawn)
inactive: dose: 12.5 mg/kg/injection, schedule: Q04DX003 (ip), vehicle: Klucel (hydroxypropylcellulose) (HPC) 96 % of control | [8] 104 % of control | [9] 98 % of control | [10] 92 % of control | [11] 100 % of control | [12] 92 % of control | [13] 101 % of control | [14] 90 % of control | [15] 106 % of control

CCC(C)NP(=O)(OC1CC(C)(C)N(O)C(C)(C)C1)OC1CC(C)(C)N(O)C(C)(C)C1 (stereo not drawn)
inactive: dose: 50.0 mg/kg/injection, schedule: Q01DX001 (ip), vehicle: water 98 % of control | dose: 100.0 mg/kg/injection, schedule: Q01DX001 (ip), vehicle: water 98 % of control | dose: 200.0 mg/kg/injection, schedule: Q01DX001 (ip), vehicle: water 94 % of control

O=C(O)/C=C/c1cccc(Br)c1
inactive: [5] 101 % of control | [4] 97 % of control | [6] 97 % of control | [7] 101 % of control

O=C(Nc1cc(C(F)(F)F)ccc1Cl)Nc1ccc(Cl)cc1[N+](=O)[O-]
inactive: [1] 93 % of control | [2] 87 % of control | [3] 100 % of control

Nc1cccc(-c2csc(N)n2)c1
inactive: [4] 100 % of control | [6] 100 % of control

Cc1cc(C)nc(CCSS(=O)(=O)O)c1
inactive: [16] 104 % of control | [17] 102 % of control | [18] 98 % of control

C/C(=N\N)C(=O)c1ccccc1
inactive: [10] 103 % of control | [11] 98 % of control | [12] 93 % of control | [13] 94 % of control | [14] 101 % of control | [15] 96 % of control

O=C(c1ccccc1)c1ccc2c3c(cccc13)C(=O)c1ccccc1-2
inactive: dose: 100.0 mg/kg/injection, schedule: Q01DX001 (ip), vehicle: saline with Tween-80 92 % of control | dose: 200.0 mg/kg/injection, schedule: Q01DX001 (ip), vehicle: saline with Tween-80 92 % of control | dose: 400.0 mg/kg/injection, schedule: Q01DX001 (ip), vehicle: saline with Tween-80 88 % of control

N#CCc1c(Cl)ccc(Cl)c1Cl
inactive: dose: 12.0 mg/kg/injection, schedule: Q01DX009 (ip), vehicle: Klucel (hydroxypropylcellulose) (HPC) 97 % of control | dose: 25.0 mg/kg/injection, schedule: Q01DX009 (ip), vehicle: Klucel (hydroxypropylcellulose) (HPC) 100 % of control | [8] 97 % of control | dose: 50.0 mg/kg/injection, schedule: Q01DX009 (ip), vehicle: Klucel (hydroxypropylcellulose) (HPC) 94 % of control | [9] 98 % of control | [11] 101 % of control and 87 % of control

O=C(Nc1ccc(Cl)c([N+](=O)[O-])c1)N(CC(O)c1ccccc1)C1CCCCC1 (stereo not drawn)
inactive: [1] 93 % of control | [2] 93 % of control | [3] 87 % of control

Nc1nc(=O)[nH]nc1SCc1ccccc1
inactive: [16] 104 % of control | [17] 98 % of control | [18] 98 % of control

NCCCCC(N)C(=O)Nc1ccc(Cc2ccc(NC(=O)C(N)CCCCN)cc2)cc1 (stereo not drawn)
inactive: dose: 50.0 mg/kg/injection, schedule: Q01DX001 (ip), vehicle: saline 103 % of control | [16] 100 % of control

CCOC(=O)c1cc2c3n(c1=O)CCCC3C(c1ccc(Cl)c(Cl)c1)OC2=O (stereo not drawn)
inactive: [16] 97 % of control | [17] 104 % of control | [18] 92 % of control

CCC([N+](=O)[O-])S(=O)(=O)c1ccc(C)cc1 (stereo not drawn)
inactive: [16] 98 % of control | [19] 98 % of control | dose: 100.0 mg/kg/injection, schedule: Q04DX003 (ip), vehicle: saline 102 % of control | [17] 95 % of control | dose: 200.0 mg/kg/injection, schedule: Q01DX009 (ip), vehicle: saline 94 % of control and 95 % of control | dose: 200.0 mg/kg/injection, schedule: Q04DX003 (ip), vehicle: saline 100 % of control | [18] 93 % of control | dose: 400.0 mg/kg/injection, schedule: Q01DX009 (ip), vehicle: saline 93 % of control and 103 % of control | dose: 400.0 mg/kg/injection, schedule: Q04DX003 (ip), vehicle: saline 94 % of control

CC1(C)N=C(N)N=C(N)N1c1ccc(CC(=O)Nc2ccc(S(=O)(=O)F)cc2)cc1
inactive: dose: 0.8 mg/kg/injection, schedule: Q01DX009 (ip), vehicle: saline 95 % of control | dose: 4.0 mg/kg/injection, schedule: Q01DX009 (ip), vehicle: saline 95 % of control | dose: 20.0 mg/kg/injection, schedule: Q01DX009 (ip), vehicle: saline 97 % of control | [19] 97 % of control | dose: 500.0 mg/kg/injection, schedule: Q01DX009 (ip), vehicle: saline 94 % of control
